Assay results from patent US8796328B2, “TRPV1 antagonists” (AbbVie Inc., priority 2012, dated 2014).

Key:
[1] = target: T1, human TRPV1 receptor (hTRPV1) (Homo sapiens (Human), UniProt Q8NER1); experiment: Acid activation assay (pH 5.0, FLIPR intracellular Ca2+); assay type: cell-based; conditions: 37.5 μM compound, percentage of the maximal pH 5.0-induced response remaining; for remaining activity at 37.5 µM: read-out: hTRPV1 H+ (max % remain)
Description: Dulbecco's modified Eagle's medium (DMEM) with 4.5 mg/mL D-glucose, fetal bovine serum, L-glutamine, and 2-morpholinoethanesulfonic acid (MES) were purchased from Sigma-Aldrich Co. (St. Louis, Mo.). Dulbecco's phosphate-buffered saline (DPBS) with Ca^2+, Mg^2+, and 1 mg/mL D-glucose (pH 7.4), Geneticin®, 0.25% trypsin-1 mM EDTA, and penicillin-streptomycin were purchased from Invitrogen Corp. (Carlsbad, Calif.). The FLIPR® Calcium 4 assay kit was purchased from Molecular Devices (Sunnyvale, Calif.).
(§1) The cDNAs for the human TRPV1 receptor (hTRPV1) were isolated by reverse transcriptase-polymerase chain reaction (RT-PCR) from human small intestine poly A+ RNA supplied by Clontech (Palo Alto, Calif.) using primers designed surrounding the initiation and termination codons identical to the published sequences (Hayes et al. Pain 2000, 88, 205-215). The resulting cDNA PCR products were subcloned into pCIneo mammalian expression vector (Promega) and fully sequenced using fluorescent dye-terminator reagents (Prism, Perkin-Elmer Applied Biosystems Division) and a Perkin-Elmer Applied Biosystems Model 373 DNA sequencer or Model 310 genetic analyzer. Expression plasmids encoding the hTRPV1 cDNA were transfected individually into 1321N1 human astrocytoma cells using Lipofectamine®. Forty-eight hours after transfection, the neomycin-resistant cells were selected with growth medium containing 800 μg/mL Geneticin (Gibco BRL). Surviving individual colonies were isolated and screened for TRPV1 receptor activity. Cells expressing recombinant homomeric TRPV1 receptors were maintained at 37° C. in DMEM containing 4 mM L-glutamine, 300 μg/mL G418 (Cal-biochem) and 10% fetal bovine serum under a humidified 5% CO2 atmosphere.
The functional activity of compounds at the TRPV1 receptor was determined by measurement of intracellular Ca^2+ levels ([Ca^2+]i) using the Fluorescence Imaging Plate Reader (FLIPR)^TETRA®. All compounds were tested over a 12-point one-half-log concentration range. Compound stocks, 10 mM, were prepared in DMSO, and diluted serially across a 384-well plate using a Bravo BenchCel workstation (Agilent Technologies, Santa Clara, Calif.).
On the day of the experiment growth medium was removed, and the no-wash FLIPR®Calcium-4 dye (λEX=470-495 nm, λEM=515-575 nm) was added to each well using the Multidrop® dispenser. Cells were incubated for 90-120 minutes in the dark at 25° C. Test compounds were dissolved in DMSO, and plates were prepared using an Agilent Bravo workstation (Agilent Technologies Inc., Santa Clara, Calif.). Compounds were added to the cells 3 minutes prior to the addition of a pH 5.0 solution. Reagents were delivered at a rate of 40 μL/sec, and the final assay volume was 80 μL. Acidic pH solutions were prepared by titration of DPBS/MES with 1 N HCl. The intensity of the fluorescence was captured and digitally transferred to an interfaced PC.

[2] = target: T1, human TRPV1 receptor (hTRPV1); experiment: Capsaicin activation assay (FLIPR intracellular Ca2+); assay type: cell-based; conditions: inhibition of capsaicin-induced intracellular Ca2+ increase; compounds added 3 minutes prior to capsaicin; read-out: hTRPV1 cap. IC50
Description: Dulbecco's modified Eagle medium (D-MEM) (with 4.5 mg/mL glucose) and fetal bovine serum were obtained from Hyclone Laboratories, Inc. (Logan, Utah). Dulbecco's phosphate-buffered saline (D-PBS) (with 1 mg/mL glucose and 3.6 mg/l Na pyruvate, without phenol red), L-glutamine, hygromycin B, and Lipofectamine® were obtained from Life Technologies (Grand Island, N.Y.). G418 sulfate was obtained from Calbiochem-Novabiochem Corp. (San Diego, Calif.). Capsaicin (8-methyl-N-vanillyl-6-nonenamide) was obtained from Sigma-Aldrich, Co. (St. Louis, Mo.). Fluo-4 AM (N-[4-[6-[(acetyloxy)methoxy]-2,7-difluoro-3-oxo-3H-xanthen-9-yl]-2-[2-[2-[bis[2-[(acetyloxy)methoxy]-2-oxyethyl]amino]-5-methylphenoxy]ethoxy]phenyl]-N-[2-[(acetyloxy)methoxy]-2-oxyethyl]-glycine, (acetyloxy)methyl ester) was purchased from Molecular Probes (Eugene, Oreg.).
as §1, with “D-MEM” for “DMEM”
The functional activity of compounds at the TRPV1 receptor was determined by measurement of intracellular Ca^2+ levels ([Ca^2]i) using the Fluorescence Imaging Plate Reader (FLIPR)^TETRA®. All compounds were tested over a 12-point one-third-log concentration range. Compound stocks, 10 mM, were prepared in DMSO, and diluted serially across a 384-well plate using a Bravo BenchCel workstation (Agilent Technologies, Santa Clara, Calif.). A stock concentration of capsaicin (10 mM) was made in DMSO, and diluted in D-PBS to a final concentration of 200 nM (4×). On the day prior to the experiment, recombinant HEK293 cells that stably express either human or rat TRPV1 (hTRPV1-3) were removed from tissue culture flasks and plated in growth medium into black-walled clear-bottom 384-well Biocoat™ poly-D-lysine assay plates (BD Biosciences, Bedford, Mass.) using a Multidrop® dispenser (ThermoScientific, Waltham, Mass.). On the day of the experiment, growth medium was removed, and the no-wash FLIPR® Calcium-4 dye (λEX=470-495 nm, λEM=515-575 nm; Molecular Devices, Sunnyvale, Calif.) was added to each well using the Multidrop® dispenser. Cells were incubated for 90-120 minutes in the dark at room temperature. Test compounds were added to the cells 3 minutes prior to the addition of 200 nM capsaicin (4×), and the final assay volume was 80 μL. Fluorescence readings were made at 1 to 5 second intervals over the course of the experimental run. The peak increase in relative fluorescence units (minus baseline) was calculated, and expressed as a percentage of the 50 nM capsaicin (control) response. Curve-fits of the data were solved using a four-parameter logistic Hill equation in GraphPad Prism® (GraphPad Software, Inc., San Diego, Calif.), and IC50 values (concentration of the test compounds that inhibits 50% of the intracellular Ca^2+ concentration increase induced by capasin) were calculated.

T1 sequence (Q8NER1 whole entry): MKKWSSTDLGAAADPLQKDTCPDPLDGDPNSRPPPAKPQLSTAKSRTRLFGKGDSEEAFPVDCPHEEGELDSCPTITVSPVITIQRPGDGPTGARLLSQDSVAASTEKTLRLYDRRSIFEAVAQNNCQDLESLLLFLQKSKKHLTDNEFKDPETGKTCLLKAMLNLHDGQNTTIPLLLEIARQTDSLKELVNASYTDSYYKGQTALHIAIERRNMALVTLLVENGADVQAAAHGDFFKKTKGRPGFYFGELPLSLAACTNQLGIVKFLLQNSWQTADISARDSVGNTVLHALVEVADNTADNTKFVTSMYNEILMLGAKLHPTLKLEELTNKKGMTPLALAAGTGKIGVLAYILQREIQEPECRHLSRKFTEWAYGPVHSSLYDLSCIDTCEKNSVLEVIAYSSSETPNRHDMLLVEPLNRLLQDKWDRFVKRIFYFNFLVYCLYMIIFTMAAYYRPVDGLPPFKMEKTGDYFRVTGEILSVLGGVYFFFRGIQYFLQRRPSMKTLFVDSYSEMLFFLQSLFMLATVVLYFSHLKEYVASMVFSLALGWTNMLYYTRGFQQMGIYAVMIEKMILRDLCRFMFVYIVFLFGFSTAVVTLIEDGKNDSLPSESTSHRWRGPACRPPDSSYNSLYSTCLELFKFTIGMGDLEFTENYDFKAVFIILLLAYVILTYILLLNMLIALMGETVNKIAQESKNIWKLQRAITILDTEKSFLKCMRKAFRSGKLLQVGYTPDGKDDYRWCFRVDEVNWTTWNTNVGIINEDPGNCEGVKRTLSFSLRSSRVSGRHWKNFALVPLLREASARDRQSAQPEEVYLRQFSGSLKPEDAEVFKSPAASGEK

SMILES | remaining activity at 37.5 µM [1] | IC50 [2] | hTRPV1 H+ (max % remain) [1]
CS(=O)(=O)Nc1ccc(CNC(=O)N[C@@H]2CCc3cc(F)ccc32)cc1F [Example 4, N-{2-fluoro-4-[({[(1R)-5-fluoro-2,3-dihydro-1H-inden-1-yl]carbamoyl}amino)methyl]phenyl}methanesulfonamide] | 91% | 16500 nM | –
CC1(C)C[C@H](NC(=O)NCc2ccc(NS(C)(=O)=O)c(F)c2)c2cc(F)ccc2O1 [Example 34, N-{2-fluoro-4-[({[(45)-6-fluoro-2,2-dimethyl-3,4-dihydro-2H-chromen-4-yl]carbamoyl}amino)methyl]phenyl}methanesulfonamide] | – | 28700 nM | 86%
C[C@]1(CF)C[C@@H](NC(=O)NCc2ccc(NS(C)(=O)=O)c(F)c2)c2ccc(C(F)(F)F)cc2O1 [Example 38, N-{2-fluoro-4-[({[(2R,4R)-2-(fluoromethyl)-2-methyl-7-(trifluoromethyl)-3,4-dihydro-2H-chromen-4-yl]carbamoyl}amino)methyl]phenyl}methanesulfonamide] | 63% | 345 nM | –
C[C@]1(C(F)(F)F)C[C@@H](NC(=O)NCc2ccc(NS(C)(=O)=O)c(F)c2)c2ccccc2O1 [Example 36, N-{2-fluoro-4-[({[(2R,4R)-2-methyl-2-(trifluoromethyl)-3,4-dihydro-2H-chromen-4-yl]carbamoyl}amino)methyl]phenyl}methanesulfonamide] | 58% | 587 nM | –
CC1(C)C[C@@H](NC(=O)NCc2ccc(NS(C)(=O)=O)c(F)c2)c2ccc(C(F)(F)F)cc2O1 [Example 9, N-{4-[({[(4R)-2,2-dimethyl-7-(trifluoromethyl)-3,4-dihydro-2H-chromen-4-yl]carbamoyl}amino)methyl]-2-fluorophenyl}methanesulfonamide] | 70% | 109 nM | –
CS(=O)(=O)Nc1ccc(CNC(=O)N[C@@H]2CC(CF)(CF)Oc3cc(OC(F)(F)F)ccc32)cc1F [Example 15, N-{4-[({[(4R)-2,2-bis(fluoromethyl)-7-(trifluoromethoxy)-3,4-dihydro-2H-chromen-4-yl]carbamoyl}amino)methyl]-2-fluorophenyl}methanesulfonamide] | 85% | 863 nM | –
CCC1(CC)C[C@@H](NC(=O)NCc2ccc(NS(C)(=O)=O)c(F)c2)c2cc(F)ccc2O1 [Example 18, N-{4-[({[(4R)-2,2-diethyl-6-fluoro-3,4-dihydro-2H-chromen-4-yl]carbamoyl}amino)methyl]-2-fluorophenyl}methanesulfonamide] | 56% | 2150 nM | –
C[C@@]1(CF)C[C@@H](NC(=O)NCc2ccc(NS(C)(=O)=O)c(F)c2)c2ccc(Cl)cc2O1 [Example 39, N-{4-[({[(2S,4R)-7-chloro-2-(fluoromethyl)-2-methyl-3,4-dihydro-2H-chromen-4-yl]carbamoyl}amino)methyl]-2-fluorophenyl}methanesulfonamide] | 41% | 615 nM | –
CS(=O)(=O)Nc1ccc(CNC(=O)N[C@@H]2CC3(CCC3)Oc3ccc(F)cc32)cc1F [Example 17, N-{2-fluoro-4-[({[(4R)-6-fluoro-3,4-dihydrospiro[chromene-2,1′-cyclobutan]-4-yl]carbamoyl}amino)methyl]phenyl}methanesulfonamide] | 69% | 3030 nM | –
CS(=O)(=O)Nc1ccc(CNC(=O)NC2CC3(CCCC3)Oc3ccccc32)cc1F (stereo not shown) [Example 44, N-(4-{[(3,4-dihydrospiro[chromene-2,1′-cyclopentan]-4-ylcarbamoyl)amino]methyl}-2-fluorophenyl)methanesulfonamide] | 42% | 1280 nM | –
C[C@@]1(CF)C[C@@H](NC(=O)NCc2ccc(NS(C)(=O)=O)c(F)c2)c2ccc(C(F)(F)F)cc2O1 [Example 37, N-{2-fluoro-4-[({[(2S,4R)-2-(fluoromethyl)-2-methyl-7-(trifluoromethyl)-3,4-dihydro-2H-chromen-4-yl]carbamoyl}amino)methyl]phenyl}methanesulfonamide] | 64% | 256 nM | –
CCC1(CC)C[C@@H](NC(=O)NCc2ccc(NS(C)(=O)=O)c(F)c2)c2ccc(OC(F)(F)F)cc2O1 [Example 19, N-{4-[({[(4R)-2,2-diethyl-7-(trifluoromethoxy)-3,4-dihydro-2H-chromen-4-yl]carbamoyl}amino)methyl]-2-fluorophenyl}methanesulfonamide] | 82% | 466 nM | –
CS(=O)(=O)Nc1ccc(CNC(=O)N[C@@H]2CCOc3c2cccc3C(F)(F)F)cc1F [Example 31, N-{2-fluoro-4-[({[(4R)-8-(trifluoromethyl)-3,4-dihydro-2H-chromen-4-yl]carbamoyl}amino)methyl]phenyl}methanesulfonamide] | 77% | 3800 nM | –
CS(=O)(=O)Nc1ccc(CNC(=O)N[C@@H]2CCc3cc(Cl)ccc32)cc1F [Example 3, N-{4-[({[(1R)-5-chloro-2,3-dihydro-1H-inden-1-yl]carbamoyl}amino)methyl]-2-fluorophenyl}methanesulfonamide] | 86% | 1810 nM | –
